# From US12508306B2, “Compositions and methods of use thereof for treatment of metabolic diseases and related disorders” (Washington University, priority 2018, dated 2025)
# B1: human arginase 1: human arginase 1 enzyme (protein, UniProt P05089 1-322, looked up)
# Arginase-1: MSAKSRTIGIIGAPFSKGQPRGGVEEGPTVLRKAGLLEKLKEQECDVKDYGDLPFADIPNDSPFQIVKNPRSVGKASEQLAGKVAEVKKNGRISLVLGGDHSLAIGSISGHARVHPDLGVIWVDAHTDINTPLTTTSGNLHGQPVSFLLKELKGKIPDVPGFSWVTPCISAKDIVYIGLRDVDPGEHYILKTLGIKYFSMTEVDRLGIGKVMEETLSYLLGRKKRPIHLSFDVDGLDPSFTPATGTPVVGGLTYREGLYITEEIYKTGLLSGLDIMEVNPSLGKTPEEVTRTVNTAVAITLACFGLAREGNHKPIDYLNPPK
# Legend:
# [1] = test system: Arg2; assay: Arg2 gene expression in cultured primary hepatocytes (RNA-seq, qPCR); format: cell-based, murine
# From the text: AML12 cells (CRL-2254) were purchased directly from the American Type Culture Collection (ATCC) and propagated and maintained precisely per manufacturer specification. Primary hepatocyte cell isolation, culture and treatment Primary murine hepatocytes obtained from WT mice were isolated^24,25,31 and cultured and maintained in regular DMEM growth media (Sigma, #D5796) containing 10% FBS. For in vitro starvation experiments, “starved” media contained 1 g/L glucose and 0:5% FBS was used. Cultures were lysed in Trizol and subjected to downstream analysis. In vitro genetic knockdown was achieved via siRNA transfection using Lipofectamine 3000 from Invitrogen (L3000015). Trehalose was obtained from Sigma Aldrich (St. Louis, MO) and was >97% purity by HPLC. Three percent trehalose water (w/v) fed ad libitum was used in all in vivo experiments.
# (§1) Total RNA was prepared by homogenizing snap-frozen livers or cultured hepatocytes in Trizol reagent (Invitrogen #15596026) according to the manufacturer's protocol. cDNA was prepared using Qiagen Quantitect reverse transcriptase kit (Qiagen #205310). Real-time qPCR was performed with Step-One Plus Real-Time PCR System (Applied Biosystems) using SYBR Green master Mix Reagent (Applied Biosystems) and specific primer pairs. Relative gene expression was calculated by a comparative method using values normalized to the expression of an internal control gene.
# [2] = test system: Arg2; assay: Hepatic Arg2 expression by qPCR and immunoblot in mice subjected to trehalose feeding; format: in vivo; details: mice fed 3% trehalose water ad libitum, 5 days
# From the text: AML12 cells (CRL-2254) were purchased directly from the American Type Culture Collection (ATCC) and propagated and maintained precisely per manufacturer specification. Primary hepatocyte cell isolation, culture and treatment Primary murine hepatocytes obtained from WT mice were isolated^24,25,31 and cultured and maintained in regular DMEM growth media (Sigma, #D5796) containing 10% FBS. For in vitro starvation experiments, “starved” media contained 1 g/L glucose and 0:5% FBS was used. Cultures were lysed in Trizol and subjected to downstream analysis. In vitro genetic knockdown was achieved via siRNA transfection using Lipofectamine 3000 from Invitrogen (L3000015). […]
# as §1, with “Real-time qPCR was performed with Step-One Plus Real-Time PCR System (Applied Biosystems) using SYBR Green master Mix Reagent (Applied Biosystems) and specific primer pairs.” left out
# Tissues were homogenized in RIPA buffer supplemented with protease and phosphatase inhibitors (Thermo Scientific). […] Protein concentration was determined by BCA Assay Kit (Thermo Scientific) and was adjusted to 2 mg/mL. […] Protein expression levels were quantified with Image Lab software and normalized to the levels of β-actin or GAPDH.
# [3] = read-out: Km for arginine; cited from earlier work
molecule,measurement,setting,value
"OCC1OC(OC2OC(CO)C(O)C(O)C2O)C(O)C(O)C1O (centres unmarked) [Lactotrehalose, lactotrehalose]",Arg2 expression compared with native trehalose at equivalent doses,"[1]; primary hepatocytes, 10 mM and 100 mM",significantly enhanced
OC[C@H]1O[C@H](O[C@H]2O[C@H](CO)[C@@H](O)[C@H](O)[C@H]2O)[C@H](O)[C@@H](O)[C@@H]1O [trehalose],hepatic Arg2 mRNA and protein,[2],induced Arg2 mRNA and protein
same,Arg2 induction by qPCR and immunoblot,"[1]; primary hepatocytes, 1 mM, 10 mM, and 100 mM, within 24 h","rapid, dose-dependent, cell autonomous Arg2 induction"
same,Arg2 expression by RNA-seq,[1]; trehalose-treated primary hepatocytes relative to untreated hepatocytes,among the most highly upregulated genes
B1,Km,[3],~45 mM
